Experiment [1] has as its target T1, PTH receptors (human bone cells) (Homo sapiens, UniProt Q03431).
T1 construct: endogenous in cells
T1 sequence (Q03431 27-593): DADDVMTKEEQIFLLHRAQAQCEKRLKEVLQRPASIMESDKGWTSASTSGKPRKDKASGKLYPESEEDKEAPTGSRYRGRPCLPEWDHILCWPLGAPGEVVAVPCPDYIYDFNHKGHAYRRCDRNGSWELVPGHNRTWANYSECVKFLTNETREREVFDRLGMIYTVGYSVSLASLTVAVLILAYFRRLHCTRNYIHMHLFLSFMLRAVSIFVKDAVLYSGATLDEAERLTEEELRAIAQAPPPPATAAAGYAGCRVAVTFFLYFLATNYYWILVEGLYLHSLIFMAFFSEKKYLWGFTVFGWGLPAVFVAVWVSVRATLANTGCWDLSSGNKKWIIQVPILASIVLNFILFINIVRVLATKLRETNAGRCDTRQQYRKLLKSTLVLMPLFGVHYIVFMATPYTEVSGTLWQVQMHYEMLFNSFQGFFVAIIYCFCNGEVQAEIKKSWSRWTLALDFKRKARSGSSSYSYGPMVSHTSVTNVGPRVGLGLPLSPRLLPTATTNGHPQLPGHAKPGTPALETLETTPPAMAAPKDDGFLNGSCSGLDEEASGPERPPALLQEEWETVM
The experiment can be described thus: Human bone cell binding assay. As to conditions: confluent monolayers, radioligand [Nle^8,18,(^125 I)-Tyr^34 ]bPTH(1-34)NH2, room temperature, 4 hours. The method, then: HCF analogues were analyzed in a new receptor binding assay as follows. Cells were plated in 24-well dishes in RPMl 1640 medium supplemented with 1% BSA, 20 mM HEPES, pH 7.5, and 0.1% azide. [Nle^8,18,(^125 I)-Tyr^34 ]bPTH(1-34)NH2 (50,000 cpm/well) was added to confluent monolayers in the absence or presence of varying concentrations of analogue under investigation in a final volume of 0.25 ml. Cultures were incubated at room temperature for 4 hours. Reactions were terminated by placing the cultures on ice and washing 4 times with ice cold PBS. Radioactivity associated with the cells was recovered by solubilizing the cells with 1 ml of 1N NaOH.

Experiment [2] concerns adenylate cyclase, human osteosarcoma cell line, B10. The experiment can be described thus: Human bone cell (B 10) adenylate cyclase assay. It is filed as cell-based. As to conditions: inhibition of cAMP stimulation by lnM [Nle^8,18, Tyr^34 ] bPTH(1-34) NH2; B10 cells. The method, then:
HCF analogues were analyzed in a human osteosarcoma cell line, B10, for the ability to inhibit cAMP stimulation by lnM [Nle^8,18, Tyr^34 ] bPTH(1-34) NH2 by the method described by R. J. Majeska et al, Endocrinol. 107, 1494 (1980).
Adenylate cyclase assay: Confluent cultures were rinsed in CMFH and scraped into 0.5-1.0 ml buffer (10 mM Tris-HCl, pH 7.8; 1 mM dithiothreitol, 0.2 mM MgCl2; and 0.5 mM EGTA) and homogenized with 10 strokes of a Dounce homogenizer (pestle A). Adenylate cyclase activity was measured by the method of Salomon et al., (18) on samples of either homogenate or membrane pellets obtained by centrifugation of diluted homogenates at 47,000×g for 30 min. The enzyme assay mix contained 0.1-0.3 mM [α-^32 P]ATP, MgCl2, and guanine nucelotides, as specified in the tables and FIGURES, and 1 mM cAMP, 5 mM phosphocreatine, and 100 U/ml creatine phosphokinase. Purified bovine PTH-(1-84), generously provided by Drs. H. Keutmann and M. Rosenblatt, Massachusetts General Hospital, Boston, MA, was dissolved and diluted in 1.5 ml/liter acetic acid containing 1 g/liter bovine serum albumin (Pentex fraction V, Miles Laboratories, Elkhart, IN). L-Isoproterenol bitarate (Sigma Chemical Co., St. Louis, MO) was prepared immediately before use and dissolved and diluted in assay buffer. Control tubes were assayed in the presence of diluent alone.

For experiment [3], the target named is T2, PTH receptors (bovine renal cortical plasma membranes) (Bos taurus, UniProt Q1LZF7).
T2 construct: from tissue; host or cells: bovine renal cortex plasma membranes
T2 sequence (Q1LZF7 29-589): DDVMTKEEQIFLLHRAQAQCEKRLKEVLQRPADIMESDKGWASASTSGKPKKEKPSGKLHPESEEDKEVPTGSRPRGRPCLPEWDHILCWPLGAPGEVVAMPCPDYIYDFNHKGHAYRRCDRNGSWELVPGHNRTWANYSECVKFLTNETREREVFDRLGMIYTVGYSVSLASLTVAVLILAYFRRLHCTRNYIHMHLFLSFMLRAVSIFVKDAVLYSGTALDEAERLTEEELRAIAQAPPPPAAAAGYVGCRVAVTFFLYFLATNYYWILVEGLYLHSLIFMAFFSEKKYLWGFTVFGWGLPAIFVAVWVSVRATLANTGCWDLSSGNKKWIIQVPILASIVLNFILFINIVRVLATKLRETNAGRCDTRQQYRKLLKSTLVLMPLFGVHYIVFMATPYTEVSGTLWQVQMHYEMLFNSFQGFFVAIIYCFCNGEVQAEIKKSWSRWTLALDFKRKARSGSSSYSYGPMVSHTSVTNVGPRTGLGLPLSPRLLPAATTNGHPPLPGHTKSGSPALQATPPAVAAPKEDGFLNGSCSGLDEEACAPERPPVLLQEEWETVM
The experiment can be described thus: Bovine renal membrane binding assay. The note with it: radioligand [Nle^8, 8, (^125 I)-Tyr^34 ]bPTH (1-34)NH2, 30 min, 21° C. The protocol:
HCF analogues were analysed in a new receptor assay reported in Goldman et al., Endocrin 123: 1468-1475 (1988). The binding assay used [Nle^8, 8, (^125 I)-Tyr^34 ]bPTH (1-34)NH2 which was purified by HPLC (Novapak C18, 32-35% CH3 CN in 0.1% TFA) and was stored as aliquots in 25 mM TrisHCl/1%BSA at -70° C. Bovine renal cortical plasma membranes were incubated with radioligand (25,000 cpm) in a Tris-containing buffer (250 μl) for 30 min at room temperature 21° C. Once equilibrium was reached, bound and free radioligand were separated by centrifugation. High specific binding (85%) to bovine renal cortical membranes was obtained consistently.

For `CC[C@H](C)[C@H](NC(=O)[C@H](CC(C)C)NC(=O)[C@H](Cc1c[nH]cn1)NC(=O)[C@H](Cc1c[nH]cn1)NC(=O)[C@H](CC(C)C)NC(=O)[C@H](Cc1ccccc1)NC(=O)[C@H](Cc1ccccc1)NC(=O)[C@H](CCCNC(=N)N)NC(=O)[C@H](CCCNC(=N)N)NC(=O)[C@H](CCCNC(=N)N)NC(=O)[C@H](CC(C)C)NC(=O)[C@H](CC(=O)O)NC(=O)[C@H](CCC(N)=O)NC(=O)[C@@H](NC(=O)[C@H](CO)NC(=O)[C@H](CCCCNC(=O)CCNC(=O)CCCC[C@@H]1SC[C@@H]2NC(=O)N[C@@H]21)NC(=O)[C@@H](Cc1c[nH]c2ccccc12)NC(=O)[C@H](CC(C)C)NC(=O)[C@H](CC(=O)O)NC(=O)[C@H](Cc1c[nH]cn1)NC(=O)[C@H](CC(C)C)NC(=O)[C@@H](N)CC(C)C)[C@@H](C)CC)C(=O)N[C@@H](C)C(=O)N[C@@H](CCC(=O)O)C(=O)N[C@H](C(=O)N[C@@H](Cc1c[nH]cn1)C(=O)N[C@H](C(=O)N[C@@H](C)C(N)=O)[C@@H](C)O)[C@@H](C)CC` [[Leu^11,D-Trp^12,Lys^13 (ε-(N-biotinyl β-Ala))]hHCF(7-34)NH2], the Ki in experiment [1] was 37.3 nM; in experiment [2] it was 7.6 nM. In experiment [3], this compound showed a Kb of 22.6 nM.

As a reminder, the Ki is a measure of affinity in units of concentration, obtained from inhibition or displacement. Read a low Ki as higher affinity.
